# Data taken from US10689622B2, “Culture medium for proliferating stem cell, which contains sulfated compound” (AJINOMOTO CO., INC., priority 2012, dated 2020).
# How the values were obtained:
# [1] = system: Human bone marrow-derived mesenchymal stem cells; assay: Mesenchymal stem cell proliferation system (cell number by DNA quantification); conditions: growth of mesenchymal stem cell, control ratio
# bFGF [2] = biological target: T1, bFGF (Homo sapiens, UniProt P09038); assay: Evaluation of bFGF stabilization in Lonza serum-free medium (ELISA); assay type: biochemical; conditions: for bFGF concentration relative to that of 4° C. control (ELISA): Lonza serum-free medium, 37° C. for 7 days; for effectiveness ELISA: effectiveness in ELISA evaluation of mesenchymal stem cells (medium), 4° C. control ratio
# T1 construct: purchased Lonza (via TAKARA BIO INC.) Ser. No. 00/190,632
# T1 sequence (P09038 143-288): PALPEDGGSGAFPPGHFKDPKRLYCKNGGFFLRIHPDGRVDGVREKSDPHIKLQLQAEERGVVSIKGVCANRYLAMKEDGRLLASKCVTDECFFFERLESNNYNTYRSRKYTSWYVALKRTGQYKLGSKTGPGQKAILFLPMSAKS
# Method: (§1) A test compound was dissolved in phosphate buffered saline, and diluted 10-fold with a serum-free medium to adjust to the concentrations shown in Table 4 (test sample). The test sample was left standing in a tightly sealed Falcon tube at 37° C. for 7 days (Tables 5 to 8-2) or 3 days (Table 8-3), and the bFGF concentration was quantified by ELISA measurement. A phosphate buffered saline without a test compound was diluted 10-fold with a serum-free medium, and left standing at 37° C. or 4° C. for 7 days or 3 days, and used as a control.
# (§2) A commercially available measurement kit (human bFGF ELISA kit, ELH-bFGF-001, Ray Biotech) was used for quantification of bFGF in the medium. The measurement procedures followed the protocol attached to the kit. The bFGF concentration of the serum-free medium was calculated from the analytical curve (conversion formula) drawn from the absorbance of an analytical curve standard solution. The evaluation criteria of Tables 5-8 are as follows:
# as §1, with “Table 13” for “Table 4”, “7 days,” for “7 days (Tables 5 to 8-2) or 3 days (Table 8-3),”, “7” for “7 days or 3”
# as §2, with “Table 13” for “Tables 5-8”, “follows: […]” for “follows:”
# [3] = Measurement of content level of sulfur in test compound (ICP); assay type: physicochemical; conditions: ICPS-8100, evaluation samples containing 0.01 wt % test compound
# Description: (§3) The content level of sulfur in the sulfated saccharide is generally not less than 5 wt %, preferably not less than 10 wt %, more preferably not less than 15 wt %, and the upper limit is generally not more than 40 wt %, preferably not more than 35 wt %, more preferably not more than 30 wt %. […] Here, the content level of sulfur is a proportion in wt % of sulfur derived only from the sulfate group in sulfated saccharides, which can be measured by a method known in the field (e.g., rhodizonate method, elemental analysis or luminescent spectral analysis).
# as §3, with “polymer” for “saccharide”, “wt” for “wt %, preferably not more than 35 wt %, more preferably not more than 30 wt”, “in” for “derived only from”, “the” for “the sulfate group in”, “polymer,” for “saccharides,”, “such as” for “(e.g.,”
# The relationship between the content level of sulfur in a test compound (sulfur content) and the cell proliferation promoting effect was examined. The sulfur content was measured using ICPS-8100 manufactured by SHIMADZU CORPORATION and analyzed using ICPS-8000 series Ver1.03. As the reference standard of sulfur, the standard for ICP-MS manufactured by Accu Standard was used. Sulfur reference standard solutions (0, 1, 10, 30, 50 ppm) were prepared, and the sulfur content of the evaluation samples containing 0.01 wt % test compound was measured by an analytical curve method.
# bFGF [4] = biological target: T1, bFGF; assay: Evaluation of bFGF stabilization in Essential 8 medium (ELISA); assay type: biochemical; conditions: 37° C. for 7 days
# Method: as §2
# (§4) A test compound was dissolved in phosphate buffered saline, and diluted 10-fold with a serum-free medium to adjust the concentration shown in Table 4 (test sample). The test sample was left standing in a tightly sealed Falcon tube at 37° C. for 7 days, and the bFGF concentration was quantified by ELISA measurement. A phosphate buffered saline without a test compound was diluted 10-fold with Essential 8 medium or ReproFF2 medium, and left standing at 37° C. or 4° C. for 7 days, and used as a control.
# as §2, with “Table 13” for “Tables 5-8”
# as §4, with “Table 12” for “Table 4”
Molecule,effectiveness ELISA (bFGF [2]),sulfur content Found (inorganic analysis) [3] [wt %],concentration showing a suppressive effect on a decrease in the bFGF concentration of the medium (bFGF [4]),effectiveness cells [1],bFGF concentration relative to that of 4° C. control (ELISA) (bFGF [2]; test compound 25 ng/ml),bFGF concentration relative to that of 4° C. control (ELISA) (bFGF [2]; test compound 250 ng/ml),bFGF concentration relative to that of 4° C. control (ELISA) (bFGF [2]; test compound 25 μg/ml),bFGF concentration relative to that of 4° C. control (ELISA) (bFGF [2]; test compound 250 μg/ml),bFGF concentration relative to that of 4° C. control (ELISA) (bFGF [4]; test compound 250 pg/ml),bFGF concentration relative to that of 4° C. control (ELISA) (bFGF [4]; test compound 25 ng/ml),bFGF concentration relative to that of 4° C. control (ELISA) (bFGF [4]; test compound 250 ng/ml),bFGF concentration relative to that of 4° C. control (ELISA) (bFGF [4]; test compound 25 μg/ml),bFGF concentration relative to that of 4° C. control (ELISA) (bFGF [4]; test compound 250 μg/ml)
xylitol SO3Na,+++ (+++ 70%<),25,–,◯ (◯ not leas than 100%),x (bFGF concentration was less than 10% relative to that of 4 °C control),x (bFGF concentration was less than 10% relative to that of 4 °C control),x (bFGF concentration was less than 10% relative to that of 4 °C control),++ (bFGF concentration was not less than 50% and less than 70% relative to that of 4 °C control),–,–,–,–,–
stachyose SO3Na,+++ (+++ 70%<),18,not less than 250 μg/ml,–,x (bFGF concentration was less than 10% relative to that of 4 °C control),− (bFGF concentration was not less than 10% and less than 30% relative to that of 4 °C control),+++ (bFGF concentration was not less than 70% relative to that of 4 °C control),+++ (bFGF concentration was not less than 70% relative to that of 4 °C control),x (bFGF concentration was less than 10% relative to that of 4 °C control),x (bFGF concentration was less than 10% relative to that of 4 °C control),x (bFGF concentration was less than 10% relative to that of 4 °C control),x (bFGF concentration was less than 10% relative to that of 4 °C control),++ (bFGF concentration was not less than 50% and less than 70% relative to that of 4 °C control)
glucose SO3Na,+ (+ 30%<),23,not less than 2.5 mg/ml,–,x (bFGF concentration was less than 10% relative to that of 4 °C control),x (bFGF concentration was less than 10% relative to that of 4 °C control),x (bFGF concentration was less than 10% relative to that of 4 °C control),− (bFGF concentration was not less than 10% and less than 30% relative to that of 4 °C control),x (bFGF concentration was less than 10% relative to that of 4 °C control),x (bFGF concentration was less than 10% relative to that of 4 °C control),x (bFGF concentration was less than 10% relative to that of 4 °C control),+++ (bFGF concentration was not less than 70% relative to that of 4 °C control),+++ (bFGF concentration was not less than 70% relative to that of 4 °C control)
glycerol SO3Na,+ (+ 30%<),23,–,–,x (bFGF concentration was less than 10% relative to that of 4 °C control),x (bFGF concentration was less than 10% relative to that of 4 °C control),x (bFGF concentration was less than 10% relative to that of 4 °C control),x (bFGF concentration was less than 10% relative to that of 4 °C control),–,–,–,–,–

# The next lines start with results.
effectiveness ELISA (bFGF [2]),sulfur content Found (inorganic analysis) [3] [wt %],concentration showing a suppressive effect on a decrease in the bFGF concentration of the medium (bFGF [4]),Molecule,effectiveness cells [1],bFGF concentration relative to that of 4° C. control (ELISA) (bFGF [2]; test compound 25 ng/ml),bFGF concentration relative to that of 4° C. control (ELISA) (bFGF [2]; test compound 250 ng/ml),bFGF concentration relative to that of 4° C. control (ELISA) (bFGF [2]; test compound 25 μg/ml),bFGF concentration relative to that of 4° C. control (ELISA) (bFGF [2]; test compound 250 μg/ml),bFGF concentration relative to that of 4° C. control (ELISA) (bFGF [4]; test compound 250 pg/ml),bFGF concentration relative to that of 4° C. control (ELISA) (bFGF [4]; test compound 25 ng/ml),bFGF concentration relative to that of 4° C. control (ELISA) (bFGF [4]; test compound 250 ng/ml),bFGF concentration relative to that of 4° C. control (ELISA) (bFGF [4]; test compound 25 μg/ml),bFGF concentration relative to that of 4° C. control (ELISA) (bFGF [4]; test compound 250 μg/ml)
+++ (+++ 70%<),19,not less than 25 μg/ml,O=S(=O)([O-])OC1C(OS(=O)(=O)[O-])C(OS(=O)(=O)[O-])C(OS(=O)(=O)[O-])C(OS(=O)(=O)[O-])C1OS(=O)(=O)[O-].[K+].[K+].[K+].[K+].[K+].[K+] (stereo not shown) [myo-inositol 6SO3K],–,x (bFGF concentration was less than 10% relative to that of 4 °C control),x (bFGF concentration was less than 10% relative to that of 4 °C control),+ (bFGF concentration was not less than 30% and less than 50% relative to that of 4 °C control),++ (bFGF concentration was not less than 50% and less than 70% relative to that of 4 °C control),x (bFGF concentration was less than 10% relative to that of 4 °C control),x (bFGF concentration was less than 10% relative to that of 4 °C control),x (bFGF concentration was less than 10% relative to that of 4 °C control),+++ (bFGF concentration was not less than 70% relative to that of 4 °C control),+++ (bFGF concentration was not less than 70% relative to that of 4 °C control)
++ (++ 50%<),14,not less than 2.5 μg/ml,α-cyclodextrin SO3Na [α-CD•SO3Na],–,x (bFGF concentration was less than 10% relative to that of 4 °C control),+ (bFGF concentration was not less than 30% and less than 50% relative to that of 4 °C control),− (bFGF concentration was not less than 10% and less than 30% relative to that of 4 °C control),+ (bFGF concentration was not less than 30% and less than 50% relative to that of 4 °C control),x (bFGF concentration was less than 10% relative to that of 4 °C control),x (bFGF concentration was less than 10% relative to that of 4 °C control),x (bFGF concentration was less than 10% relative to that of 4 °C control),+++ (bFGF concentration was not less than 70% relative to that of 4 °C control),+++ (bFGF concentration was not less than 70% relative to that of 4 °C control)
